Data on one compound can be found in patent publication US20120270237A9, “METHODS FOR THE IDENTIFICATION OF KINASE INTERACTING MOLECULES AND FOR THE PURIFICATION OF KINASE PROTEINS” (Cellzone AG, priority 2009, published 2012).

Structures are written as SMILES.

What all share (assay): Kinobeads competition binding, HeLa Placenta lysate mix
Holding throughout (design): endogenous in cells
Settings in all cases: 10 μM free compound

The target in one test is T1, MAP3K2 (Homo sapiens, UniProt Q9Y2U5).
T1 sequence (Q9Y2U5 1-619): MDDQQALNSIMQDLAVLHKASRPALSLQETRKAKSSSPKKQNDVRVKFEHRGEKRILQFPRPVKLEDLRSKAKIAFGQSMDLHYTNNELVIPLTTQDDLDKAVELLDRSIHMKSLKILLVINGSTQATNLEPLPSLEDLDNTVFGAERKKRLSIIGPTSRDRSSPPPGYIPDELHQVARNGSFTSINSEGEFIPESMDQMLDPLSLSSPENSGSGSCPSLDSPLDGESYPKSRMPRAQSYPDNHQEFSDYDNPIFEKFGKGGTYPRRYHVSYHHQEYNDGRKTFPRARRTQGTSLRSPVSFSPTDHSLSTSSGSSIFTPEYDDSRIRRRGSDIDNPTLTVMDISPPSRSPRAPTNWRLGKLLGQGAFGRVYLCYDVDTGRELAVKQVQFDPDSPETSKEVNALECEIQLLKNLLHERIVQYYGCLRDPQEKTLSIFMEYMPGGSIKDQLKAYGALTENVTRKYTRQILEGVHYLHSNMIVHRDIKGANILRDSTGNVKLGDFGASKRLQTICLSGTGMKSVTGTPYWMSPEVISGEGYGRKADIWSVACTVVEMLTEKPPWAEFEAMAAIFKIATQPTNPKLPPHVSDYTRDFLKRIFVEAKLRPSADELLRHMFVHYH
The method, boiled down:
(§1)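 Read-out is iTRAQ reporter ion quantification by nano-LC-MS/MS, comparing a lysate aliquot pretreated with 10 μM free compound to a DMSO solvent control. Kinases not bound by free compound were pulled down on beads carrying the immobilized compound, separated by SDS-PAGE and digested with trypsin.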

In the next test the target is CK2a1 (Homo sapiens, UniProt P68400). In a few lines: as §1
The next test addresses JNK2 (Homo sapiens, UniProt P45984). In a few lines: as §1
The target in a further test is T2, AurA (Homo sapiens, UniProt O14965).
T2 sequence (O14965 1-403): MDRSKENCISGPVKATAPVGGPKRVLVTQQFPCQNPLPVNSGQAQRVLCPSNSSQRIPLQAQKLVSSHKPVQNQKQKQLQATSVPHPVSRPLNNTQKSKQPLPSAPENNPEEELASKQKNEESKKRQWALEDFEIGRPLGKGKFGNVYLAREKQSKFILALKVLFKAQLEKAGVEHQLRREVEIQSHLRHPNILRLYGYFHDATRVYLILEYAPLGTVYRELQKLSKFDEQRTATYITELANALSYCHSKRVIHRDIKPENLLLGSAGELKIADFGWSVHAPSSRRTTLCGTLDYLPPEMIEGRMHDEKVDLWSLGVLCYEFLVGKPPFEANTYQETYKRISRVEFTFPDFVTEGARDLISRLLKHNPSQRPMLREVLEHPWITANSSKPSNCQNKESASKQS
The method, boiled down:
as §1

The target in another test is T3, IRAK4 (Homo sapiens, UniProt Q9NWZ3).
T3 sequence (Q9NWZ3 1-460): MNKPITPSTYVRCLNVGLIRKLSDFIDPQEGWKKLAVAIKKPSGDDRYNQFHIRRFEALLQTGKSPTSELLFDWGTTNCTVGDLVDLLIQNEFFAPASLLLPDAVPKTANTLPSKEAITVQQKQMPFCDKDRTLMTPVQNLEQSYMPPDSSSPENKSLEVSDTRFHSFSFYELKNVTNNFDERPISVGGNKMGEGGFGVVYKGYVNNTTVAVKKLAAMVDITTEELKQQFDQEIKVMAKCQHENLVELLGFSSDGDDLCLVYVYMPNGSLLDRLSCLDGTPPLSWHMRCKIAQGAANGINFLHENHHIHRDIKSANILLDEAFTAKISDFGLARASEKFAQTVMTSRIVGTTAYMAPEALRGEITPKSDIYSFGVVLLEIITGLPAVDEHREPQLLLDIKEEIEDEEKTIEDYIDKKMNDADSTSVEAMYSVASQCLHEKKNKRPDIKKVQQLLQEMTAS
The method, boiled down: as §1

Chain of JNK2 (P45984 whole entry): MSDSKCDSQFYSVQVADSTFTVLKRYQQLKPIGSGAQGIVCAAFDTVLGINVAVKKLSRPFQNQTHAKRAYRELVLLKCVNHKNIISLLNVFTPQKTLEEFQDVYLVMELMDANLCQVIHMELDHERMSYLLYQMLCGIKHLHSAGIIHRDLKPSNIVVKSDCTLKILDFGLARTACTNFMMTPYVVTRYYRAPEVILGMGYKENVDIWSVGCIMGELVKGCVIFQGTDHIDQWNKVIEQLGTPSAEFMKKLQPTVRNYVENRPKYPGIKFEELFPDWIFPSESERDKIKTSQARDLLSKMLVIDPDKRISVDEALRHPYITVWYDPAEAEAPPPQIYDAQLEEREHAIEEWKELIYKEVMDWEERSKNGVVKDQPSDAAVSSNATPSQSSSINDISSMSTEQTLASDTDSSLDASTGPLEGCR
Chain of CK2a1 (P68400 whole entry): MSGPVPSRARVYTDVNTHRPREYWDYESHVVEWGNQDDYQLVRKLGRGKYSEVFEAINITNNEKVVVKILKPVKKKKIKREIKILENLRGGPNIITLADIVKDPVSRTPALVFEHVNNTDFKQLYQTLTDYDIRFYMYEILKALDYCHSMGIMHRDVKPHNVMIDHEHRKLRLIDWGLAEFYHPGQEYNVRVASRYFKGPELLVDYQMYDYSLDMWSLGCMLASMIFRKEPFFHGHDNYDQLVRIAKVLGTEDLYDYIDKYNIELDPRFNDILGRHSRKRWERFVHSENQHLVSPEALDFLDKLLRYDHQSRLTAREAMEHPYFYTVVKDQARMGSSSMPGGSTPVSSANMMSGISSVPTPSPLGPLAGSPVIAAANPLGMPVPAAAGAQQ

Consider `CS(=O)(=O)Nc1ccccc1Nc1nc(Nc2cccc(OCCN)c2)ncc1Cl` [CZC31326, N-(2-(2-(3-(2-aminoethoxy)phenylamino)-5-chloropyrimidin-4-ylamino)phenyl)methanesulfonamide], for which the inhibition at 10 µM on MAP3K2 is 93.9%; at CK2a1, 94.6%; on AurA it was 94%. Besides, the figures for the Competition % at JNK2 and at IRAK4 were 83.1% and 93.8%, respectively.

As usually defined, the inhibition is the relative decrease from the control value, in per cent. Read a high inhibition as a response far below the control.
